Like-named read-outs stand apart in the source and are kept apart here.
Columns and labels:
MOR = details: cited from earlier work
parental HEK293 cells = format: cell-based, human
[1] = test system: MOR kinase pathways in HEK-MOR cells; format: cell-based, human
[2] = test system: MOR G-protein signaling in HEK-MOR cells; format: cell-based, human

For COc1ccc2c3c1O[C@H]1[C@@H](O)C=C[C@H]4[C@@H](C2)NCC[C@@]341 [(-)-norcodeine], the Ki (MOR) is listed as 267 nM.
In the case of O=C1/C(=C/c2ccccc2)C[C@@]2(O)[C@H]3Cc4ccc(O)c5c4[C@@]2(CCN3CC2CC2)[C@H]1O5 [BNTX], the “DMR produced by ligand in parental HEK293 cells” value (parental HEK293 cells) is given as “negative DMR” and the Ki (MOR) is given as 18 nM.
For O=C(Cc1ccc(Cl)c(Cl)c1)N1CCCCC1CN1CCCC1 (stereo not drawn) [BRL-52537], the “maximal DMR response after SB202190 pretreatment vs untreated” value [1] is listed as “significantly reduced”, the Ki (MOR) is listed as 1560 nM and the “ligand-induced DMR in cholera toxin (CTx)-pretreated cells vs untreated” value [2] is listed as “reduce”.
In the case of C[C@@H](NC(=O)[C@@H](N)Cc1ccc(O)cc1)C(=O)NCC(=O)N(C)[C@@H](Cc1ccccc1)C(=O)NCCO [DAMGO], the “maximal DMR response after SB202190 pretreatment vs untreated” value [1] is reported as “not completely blunted” and the “ligand-induced DMR in pertussis toxin (PTx)-pretreated cells” value [2] is reported as “small P-DMR”.
For CN(C(=O)Cc1ccc(Cl)c(Cl)c1)[C@H](CN1CCCC1)c1cccc(N=C=S)c1 [DIPPA, 2-(3,4-Dichlorophenyl)-N-methyl-N-[(1S)-1-(3-isothiocyanatophenyl)-2-(1-pyrrolidinyl)ethyl]acetamide], the “late DMR response after U0126 pretreatment vs untreated” value [1] was “significantly suppressed”, the “maximal DMR response after SB202190 pretreatment vs untreated” value [1] was “significantly reduced” and the “maximal DMR response after U0126 pretreatment vs untreated” value [1] was “sensitive”. The IC50 (MOR) was 1800 nM.
In the case of CN(C(=O)Cc1ccc(Cl)c(Cl)c1)[C@H](CN1CCCC1)c1ccccc1 [ICI 199,441], the “DMR produced by ligand in parental HEK293 cells” value (parental HEK293 cells; ligand 10 µM) is reported as “small N-DMR”.
For Oc1ccc2c3c1O[C@H]1c4c(c5ccccc5n4Cc4ccccc4)C[C@@]4(O)[C@@H](C2)N(CC2CC2)CC[C@]314 [N-benzylnaltrindole], the IC50 (MOR) is listed as 11.2 nM.
For Oc1ccc2c3c1O[C@H]1c4oc5ccccc5c4C[C@@]4(O)[C@@H](C2)N(CC2CC2)CC[C@]314 [Naltriben], the Ki (MOR) is listed as 80.8 nM.
In the case of C=CCN1CCC2(C)c3cc(O)ccc3CC1C2C (stereo not drawn) [SKF10047], the Ki (MOR) is given as 1900 nM.
In the case of NC(=O)[C@H](Cc1ccccc1)NC(=O)[C@H](Cc1ccccc1)NC(=O)[C@@H]1CCCN1C(=O)[C@@H](N)Cc1ccc(O)cc1 [endomorphin-2], the Ki (MOR) is listed as 0.43 nM and the “ligand-induced DMR in cholera toxin (CTx)-pretreated cells vs untreated” value [2] is listed as “reduce”.
For C=CCN1CC[C@]23CCCC[C@H]2[C@H]1Cc1ccc(O)cc13 [levallorphan], the Ki (MOR) is given as 1.7 nM.
In the case of C=CC[N+]1(C)CC[C@]23c4c5ccc(O)c4O[C@H]2C(=O)CC[C@@]3(O)[C@H]1C5 (stereo partly drawn) [naloxone methionone], the Ki (MOR) is given as 28.9 nM.
With COc1cccc(C2(O)CCCCC2CN(C)C)c1 (stereo not drawn) [tramadol] the “maximal DMR response after SB202190 pretreatment vs untreated” value [1] was “significantly reduced” and the “maximal DMR response after U0126 pretreatment vs untreated” value [1] was “sensitive”.
For COC(=O)/C=C/C(=O)N[C@@H]1CC[C@@]2(O)[C@H]3Cc4ccc(O)c5c4[C@@]2(CCN3CC2CC2)[C@H]1O5 [β-funaltrexamine], the “late DMR response after SP100625 pretreatment vs untreated” value [1] is listed as “potentiated”, the “maximal DMR response after SP100625 pretreatment vs untreated” value [1] is listed as “enhanced” and the Ki (MOR) is listed as 0.33 nM.
For (D-Ala^2, D-Leu^5) enkephalin, the Kd (MOR) is given as 150 nM.
In the case of (met^5)-enkephalin, the Ki (MOR) is listed as 3 nM.
In the case of DPDPE, the Kd (MOR) is given as 600 nM.
For DSLET, the “maximal DMR response after SB202190 pretreatment vs untreated” value [1] is given as “significantly reduced” and the Kd (MOR) is given as 120 nM.
For deltorphin II, the Kd (MOR) is listed as 3.3 nM.
In the case of dynorphin A 1-8, the Ki (MOR) is given as 22.3 nM.
In the case of dynorphin A 1-13, the “maximal DMR response after SB202190 pretreatment vs untreated” value [1] is listed as “significantly reduced”, the “maximal DMR response after SP100625 pretreatment vs untreated” value [1] is listed as “enhanced” and the Kd (MOR) is listed as 31 nM.
In the case of dynorphin B, the Ki (MOR) is listed as 13 nM.
In the case of morphiceptin, the IC50 (MOR) is listed as 19.8 nM.
For nociceptin 1-13: ORL1 agonist, the Ki (MOR) is listed as 270 nM.
